Source: the NIST ThermoML archive (doi:10.1016/j.jct.2011.11.027)
Numbers after ± are expanded uncertainties. One block for each molecule: values may come before it.

Legend:
[1] = wn = mass fraction of the nth substance listed; details: 298.15 K, 101 kPa, Liquid, Vibrating tube method
[2] = 298.15 K; 101.33 kPa; Liquid; Vibrating tube method
[3] = refractive index (Na D-line) (dimensionless); details: 298.15 K; 101.33 kPa; Liquid; Standard Abbe refractometry

mass density ([1]; w1 = 1): 679.57 ± 0.18 kg/m3
Structure (SMILES): CCCCCCC [heptane] + C1CCCCC1

Structure (SMILES): CCCC[N+]1(C)CCCC1.O=S(=O)([N-]S(=O)(=O)C(F)(F)F)C(F)(F)F
mass density [2]: 1394.66 ± 0.58 kg/m3
refractive index [3]: 1.42302 ± 0.00042

Structure (SMILES): CCCC[N+]1(C)CCCC1.O=S(=O)([O-])C(F)(F)F [1-butyl-1-methylpyrrolidinium trifluoromethanesulfonate]
mass density [2]: 1252.71 ± 0.45 kg/m3
refractive index [3]: 1.43287 ± 0.00042

mass density ([1]; w2 = 0): 773.88 ± 0.13 kg/m3
mass density ([1]; w2 = 0.0503): 766.95 ± 0.14 kg/m3
mass density ([1]; w2 = 0.0991): 760.53 ± 0.14 kg/m3
mass density ([1]; w2 = 0.2021): 748.16 ± 0.14 kg/m3
mass density ([1]; w2 = 0.3118): 735.69 ± 0.15 kg/m3
mass density ([1]; w2 = 0.3926): 726.61 ± 0.15 kg/m3
mass density ([1]; w2 = 0.5039): 717.21 ± 0.16 kg/m3
mass density ([1]; w2 = 0.666): 703.79 ± 0.16 kg/m3
mass density ([1]; w2 = 0.7062): 700.61 ± 0.17 kg/m3
mass density ([1]; w2 = 0.8061): 692.71 ± 0.17 kg/m3
mass density ([1]; w2 = 0.9061): 685.62 ± 0.18 kg/m3
mass density ([1]; w2 = 0.9539): 682.6 ± 0.18 kg/m3
Structure (SMILES): C1CCCCC1 [cyclohexane] + CCCCCCC
